Test results taken from patent US7569724B2, “Carbamic acid compounds comprising an amide linkage as HDAC inhibitors” (Topotarget UK Limited, priority 2000, dated 2009).
Like-named read-outs stand apart in the source and are kept apart here.

Tests used:
[1] = tested on: K11 HPV E7 transformed human keratinocyte line; assay: Secondary assay: cell proliferation WST-1, K11; type: cell-based; conditions: read-out: Cell Proliferation Inhibition WST-1 (IC50 unless otherwise specified) K11
[2] = tested on: NHEK-Ad primary human adult keratinocyte line; assay: Secondary assay: cell proliferation WST-1, NHEK-Ad; type: cell-based; conditions: 48 h, read-out: Cell Proliferation Inhibition WST-1 (IC50 unless otherwise specified) NHEK-AD
Experimental: Compounds with HDAC inhibition activity, as determined using the primary assay, were subsequently evaluated using secondary cell-based assays. The following cell lines were used:
NHEK-Ad—Primary human adult keratinocyte line (Cambrex Corp., East Rutherford, N.J., USA).
Cells were plated in 96-well plates at 3-10×10^3 cells/well in 100 μL of culture medium. The following day, different concentrations of candidate compounds were added and the cells incubated at 37° C. for 48 h. Subsequently, 10 μL/well of WST-1 reagent was added and the cells reincubated for 1 hour. After the incubation time, absorbance was measured.
WST-1 is a tetrazolium salt which is cleaved to formazan dye by cellular enzymes. An expansion in the number of viable cells results in an increase in the overall activity of mitochondrial dehydrogenases in the sample. This augmentation in the enzyme activity leads to an increase in the amount of formazan dye formed, which directly correlates to the number of metabolically active cells in the culture. The formazan dye produced is quantified by a scanning multiwell spectrophotometer by measuring the absorbance of the dye solution at 450 nm wavelength (reference wavelength 690 nm).
Percent activity (% activity) in reducing the number of viable cells was calculated for each test compound as: % activity={(S^C−B)/(S^o−B)}×100 wherein S^C denotes signal measured in the presence of the compound being tested, S^o denotes signal measured in the absence of the compound being tested, and B denotes the background signal measured in blank wells containing medium only.
IC50 values were calculated using the software package Prism 3.0 (GraphPad software Inc., San Diego, Calif.), setting top value at 100 and bottom value at 0.

[3] = tested on: JURKAT human T-cell line; assay: Secondary assay: cell proliferation WST-1, Jurkat; type: cell-based; conditions: 48 h, read-out: Cell Proliferation Inhibition WST-1 (IC50 unless otherwise specified) Jurkat
[4] = tested on: HeLa cells; assay: Secondary assay: cell proliferation WST-1, HeLa; type: cell-based; conditions: Homo sapiens, 48 h, read-out: Cell Proliferation Inhibition WST-1 (IC50 unless otherwise specified) HeLa
Outline: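 Absorbance at 450 nm (reference 690 nm); % activity vs untreated after blank subtraction, IC50 fitted with top 100 and bottom 0.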

[5] = molecular target: T1, human HDAC2 (Homo sapiens, UniProt Q92769); assay: Primary assay: deacetylase activity, recombinantly produced HDAC2; type: biochemical; conditions: recombinant HDAC2; read-out: HDAC Inhibition (IC50 unless otherwise specified) HDAC2
T1 construct: Full length human HDAC2 was subcloned; Flag (C); His6 (from pAcHLT-A vector; purified on Ni-NTA) (N); made in house; host or cells: SF9 insect cells (baculovirus)
Text: (§1) Briefly, this assay relies on the release of radioactive acetate from a radioactively labelled histone fragment by the action of HDAC enzyme. Test compounds, which inhibit HDAC, reduce the yield of radioactive acetate. Signal (e.g., scintillation counts) measured in the presence and absence of a test compound provide an indication of that compound's ability to inhibit HDAC activity. Decreased activity indicates increased inhibition by the test compound.
(§2) The histone fragment was an N-terminal sequence from histone H4, and it was labelled with radioactively labelled acetyl groups using tritiated acetylcoenzyme A (coA) in conjunction with an enzyme which is the histone acetyltransferase domain of the transcriptional coactivator p300. […] The acetylated peptide was then separated from free acetyl coA by size exclusion chromatography on Sephadex G-15 (Sigma G-15-120), using distilled H2O as the mobile phase.
(§3) After purification of the radiolabelled histone fragment, it was incubated with a source of HDAC (e.g., an extract of HeLa cells (a rich source of HDAC), recombinantly produced HDAC1 or HDAC2) and any released acetate was extracted into an organic phase and quantitatively determined using scintillation counting. By including a test compound with the source of HDAC, that compound's ability to inhibit the HDAC was determined.
(§4) Amplification of recombinant viruses was performed according to the Pharmingen Instruction Manual.
(§5) For protein production, 2×10^7 cells were infected with the appropriate recombinant virus for 3 days. Cells were then harvested and spun at 3,000 rpm for 5 minutes. They were then washed twice in PBS and resuspended in 2 pellet volumes of lysis buffer (25 mM HEPES pH 7.9, 0.1 mM EDTA, 400 mM KCl, 10% glycerol, 0.1% NP-40, 1 mM AEBSF). Resuspended cells were frozen on dry ice and thawed at 37° C. 3 times and centrifuged for 10 minutes at 14,000 rpm. […] Incubation was carried out at 4° C. for 1 hour on a rotating wheel. The slurry was then centrifuged at 500 g for 5 minutes. Beads were washed twice in 1 ml of wash buffer (25 mM HEPES pH7.9, 0.1 mM EDTA, 150 mM KCl, 10% glycerol, 0.1% NP-40, 1 mM AEBSF). Protein was eluted 3 times in 300 μl elution buffer (25 mM HEPES pH 7.9, 0.1 mM EDTA, 250 mM KCl, 10% glycerol, 0.1% NP-40, 1 mM AEBSF) containing increasing concentrations of imidazole: 0.2 M, 0.5 M and 1 M. Each elution was performed for 5 minutes at room temperature. Eluted protein was kept in 50% glycerol at −70° C.
(§6) A source of HDAC (e.g., 2 μL of crude HeLa extract, 5 μL of HDAC1 or HDAC2; in elution buffer, as above) was incubated with 3 μL of radioactively labelled peptide along with appropriate dilutions of candidate compounds (1.5 μL) in a total volume of 150 μL of buffer (20 mM Tris pH 7.4, 10% glycerol). The reaction was carried out at 37° C. for one hour, after which the reaction was stopped by adding 20 μL of 1 M HCl/0.4 M sodium acetate. […] Radioactivity was measured using a Tri-Carb 2100TR Liquid Scintillation Analyzer (Packard).
(§7) Percent activity (% activity) for each test compound was calculated as: % activity={(S^C−B)/(S^o−B)}×100 wherein S^C denotes signal measured in the presence of enzyme and the compound being tested, S^o denotes signal measured in the presence of enzyme but in the absence of the compound being tested, and B denotes the background signal measured in the absence of both enzyme and compound being tested.

[6] = tested on: HDAC (HeLa cell extract); assay: Primary assay: deacetylase activity, HeLa cell extract as source of HDAC; type: biochemical, human
Outline: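 Crude HeLa extract (freeze-thaw in 60 mM TrisCl pH 8.0, 450 mM NaCl, 30% glycerol) was incubated 1 h at 37° C with a [³H]acetyl-labelled histone H4 N-terminal peptide in 20 mM Tris pH 7.4, 10% glycerol.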

[7] = molecular target: T2, human HDAC1 (Homo sapiens, UniProt Q13547); assay: Primary assay: deacetylase activity, recombinantly produced HDAC1; type: biochemical; conditions: recombinant HDAC1; read-out: HDAC Inhibition (IC50 unless otherwise specified) HDAC1
T2 construct: Full length human HDAC1 was cloned by PCR; Flag (C); His6 (from pAcHLT vector; purified on Ni-NTA) (N); made in house; host or cells: SF9 insect cells (baculovirus)
Text: as §1, §2, §3
Full length human HDAC1 was cloned by PCR using a λgt11 Jurkat cDNA library (Clontech-HL5012b). The amplified fragment was inserted into the EcoRI-Sall sites of pFlag-CTC vector (Sigma-E5394), in frame with the Flag tag. A second PCR was carried out in order to amplify a fragment containing the HDAC1 sequence fused to the Flag tag.
as §4, §5, §6, §7

[8] = Homo sapiens, Keratinocyte, 48 h
[9] = HeLa cell extract, read-out: HDAC Inhibition (IC50 unless otherwise specified) HeLa
[10] = Homo sapiens, Keratinocyte, NHEK-AD

T1 sequence (Q92769 whole entry): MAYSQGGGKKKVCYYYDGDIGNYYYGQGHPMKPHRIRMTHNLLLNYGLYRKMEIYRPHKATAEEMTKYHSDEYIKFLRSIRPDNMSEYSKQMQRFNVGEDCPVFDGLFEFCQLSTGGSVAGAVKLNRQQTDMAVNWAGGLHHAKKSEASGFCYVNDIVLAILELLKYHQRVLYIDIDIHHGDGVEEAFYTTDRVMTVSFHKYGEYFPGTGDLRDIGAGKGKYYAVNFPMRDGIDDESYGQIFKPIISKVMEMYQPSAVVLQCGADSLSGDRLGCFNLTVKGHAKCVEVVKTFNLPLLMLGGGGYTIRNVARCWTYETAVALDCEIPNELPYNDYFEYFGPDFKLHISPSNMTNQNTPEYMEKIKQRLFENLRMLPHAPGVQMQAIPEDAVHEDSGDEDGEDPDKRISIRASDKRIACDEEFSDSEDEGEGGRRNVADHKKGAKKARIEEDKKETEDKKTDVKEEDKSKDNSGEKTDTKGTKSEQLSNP
T2 sequence (Q13547 whole entry): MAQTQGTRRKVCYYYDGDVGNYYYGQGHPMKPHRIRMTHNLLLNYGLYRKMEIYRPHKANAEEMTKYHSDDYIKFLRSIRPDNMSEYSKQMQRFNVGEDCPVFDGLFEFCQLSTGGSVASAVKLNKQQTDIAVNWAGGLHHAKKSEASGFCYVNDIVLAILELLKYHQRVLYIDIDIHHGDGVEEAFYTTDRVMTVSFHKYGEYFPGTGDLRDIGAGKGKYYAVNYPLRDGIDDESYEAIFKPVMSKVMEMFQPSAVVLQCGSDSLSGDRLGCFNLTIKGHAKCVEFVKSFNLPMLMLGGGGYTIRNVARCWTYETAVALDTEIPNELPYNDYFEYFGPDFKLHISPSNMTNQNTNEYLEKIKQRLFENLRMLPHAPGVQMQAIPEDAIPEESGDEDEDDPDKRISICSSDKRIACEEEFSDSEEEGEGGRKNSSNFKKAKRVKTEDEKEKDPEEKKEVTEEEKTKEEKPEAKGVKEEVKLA

IC50 [5] [µM] | IC50 [7] [µM] | melting point [°C] | SMILES | IC50 [1, 8] [µM] | IC50 [4] [µM] | IC50 ([3]; Homo sapiens) [µM] | IC50 [6, 9] [µM] | IC50 [2, 10] [µM] | other results
 |  |  | Nc1ccccc1NC(=O)c1ccc(CNC(=O)OCc2cccnc2)cc1 [MS-275, reference compound] |  |  |  |  |  | IC50 ([1]; K11, 48 h): 9.16 µM; IC50 ([2]; NHEK-AD): 3.1 µM; IC50 [3]: 0.365 µM
 |  |  | O=C(/C=C/C#Cc1cccc(NS(=O)(=O)c2ccccc2)c1)NO [Oxamflatin, (2E)-5-[3-[(phenylsulfonyl)amino]phenyl]-pent-2-en-4-ynohydroxamic acid, reference compound] | 4.56 | 1.1 | 0.26 |  |  | IC50 ([2]; Homo sapiens, Keratinocyte): 3.53 µM
0.056 | 0.025 | 222 to 224 | O=C(/C=C/C=C/c1ccc(-c2ccccc2)cc1)NCCCCCC(=O)NO [PX105848, (2E,4E)-5-Biphenyl-4-yl-penta-2,4-dienoic acid (5-hydroxycarbamoyl-pentyl)-amide] |  | 4.3 |  | 0.022 |  | IC50 ([6]; comparative tables, HeLa cell extract, read-out: HeLa IC50): 0.022 µM
0.063 | 0.05 | 158 to 160 | O=C(/C=C\C=C\c1ccc(Cl)cc1)NCCCCCC(=O)NO [PX105849, (2Z,4E)-5-(4-Chlorophenyl)penta-2,4-dienoic acid (5-hydroxycarbamoylpentyl)-amide] |  | 5.3 |  | 0.029 |  | 
0.075 | 0.025 | 164 to 168 | O=C(/C=C/C=C/c1ccc(Cl)cc1)NCCCCCC(=O)NO [PX105850, (2E,4E)-5-(4-Chlorophenyl)penta-2,4-dienoic acid (5-hydroxycarbamoylpentyl)-amide] |  | 6.3 |  | 0.028 |  | 
0.05 | 0.012 | 160 to 162 | O=C(/C=C/C=C/c1ccccc1)NCCCCCCCC(=O)NO [PX105851] |  | 4.2 |  | 0.018 |  | IC50 ([6]; comparative tables, HeLa cell extract, no unit in cell, read-out: HeLa IC50): 0.018 µM
 |  |  | O=C(/C=C/c1ccc2ccccc2c1)NCCCCCC(=O)NO [PX116232, E-N-(5-Hydroxycarbamoylpentyl)-3-naphthalen-2-yl-acrylamide] | 2.7 | 18.3 | 7.3 | 0.01 | 1.7 | 
 |  |  | O=C(C=C1c2ccccc2-c2ccccc21)NCCCCCC(=O)NO [PX117456, 6-(2-Fluoren-9-ylideneacetylamino)hexanoic acid hydroxyamide] | 0.74 | 0.65 | 0.18 |  |  | IC50 ([6]; read-out: HDAC Inhibition (IC50 unless otherwise specified) HeLa): 0.003 µM; IC50 ([2]; Homo sapiens, Keratinocyte): 0.25 µM
 |  |  | CC(/C=C/C(=O)NO)=C\[C@@H](C)C(=O)c1ccc(N(C)C)cc1 [TSA, trichostatin A, reference compound] | 0.38 | 0.35 | 0.042 |  |  | IC50 ([2]; Homo sapiens, Keratinocyte): 0.2 µM

SMILES | IC50 [5] [µM] | IC50 [7] [µM] | melting point [°C] | IC50 [1, 8] [µM] | IC50 [4] [µM] | IC50 ([3]; Homo sapiens) [µM] | IC50 [6, 9] [µM] | IC50 [2, 10] [µM] | other results
O=C(/C=C/C=C/c1ccccc1)NCCCCCC(=O)NO [PX105553, 4-(2E)(4E)-5-Phenyl-penta-2,4-dienoic acid (5-hydroxycarbamoyl-pentyl)-amide] | 0.047 | 0.038 |  | 7.5 | 5.7 | 3.7 | 0.018 | 2.4 | 
O=C(/C=C/c1c[nH]c2ccccc12)NCCCCCC(=O)NO [PX116220, N-(5-Hydroxycarbamoyl-pentyl)-3-(1-N-indol-3-yl)-acrylamide] |  |  | 92 to 94 | 9.5 | 3.7 | 4.5 | 0.0063 | 2.4 | 
O=C(CCCCCCC(=O)Nc1ccc2ccccc2c1)NO [PX116223, Octanedioic acid hydroxyamide naphthalen-2-ylamide] |  |  | 142.5 to 144 | 1.7 | < 0.31 | 0.22 | < 0.0125 | 1.3 | 
